Test results from patent US11957783B2, “Topical immunosensitizers to treat viral and fungal infections” (Squarex, LLC, priority 2018, dated 2024).
Marks after values point to notes of the source that are not given here.

System: peripheral blood mononuclear cells (PBMC)
Test: Cytokine and immune-function gene expression of PBMC in vitro (qRT-PCR, 41 immune-related genes)
Assay type: cell-based, human
Description: After a screening visit at which blood was drawn to test for IgG antibody against HSV-1 and subjects were interviewed for inclusion/exclusion criteria, selected subjects returned for blood draws on day 1. After the blood draw on day 1, subjects in group A only were dosed with SADBE. A petrolatum donut was applied with a cotton swab to form about a 1 cm diameter donut on skin on the inner aspect of the upper arm. Then a separate cotton swab was dipped in a 2% SADBE solution (w/v) in DMSO, and the swab was then used to apply about 10-20 mg of solution over about a 1 cm diameter circle within the petrolatum donut. Immediately after application, the application site was covered with TEGADERM. Subjects were advised to remove the TEGADERM and rinse and wipe the spot three hours later. The group A subjects then returned for blood draws on days 15 and 57 and were queried about adverse events on those dates.
PBMC were isolated using SepMate PBMC isolation tubes (Stem Cell Technologies, Vancouver, Canada) and Ficoll-Paque according to the manufacturer's instructions. PBMC were isolated and suspended in negative control medium at 2 million cells/ml. PBMC suspension (100 μL) was added to 100 μL of medium in quadruplicate in 96-well plates. The plates were prepared in advance and stored at −70° C. The wells were in five different conditions in quadruplicate with these final concentrations after addition of the 100 μL of PBMC suspension in negative control medium. • 1. Negative control in medium (RPMI with glutamine and pen/strep, supplemented with 10% human A/B serum). • 2. Medium plus 16 μg/ml protein from heat-inactivated HSV-1-infected Vero cell extracts. • 3. Medium plus heat-inactivated HSV-1 cell-free virus at a final 7.5 million pfu/ml. • 4. Medium plus Candida cell extract. (Greer item number M15A50, 20,000 pnu/ml allergenic extract mixed molds Candida albicans, was diluted 1/50 into medium). • 5. Positive control, medium plus 10 μg/ml concanavalin A.
Two plates were created for each subject at each collection point. One plate was incubated for 2 days at 37° C. in a humidified 5% CO2 atmosphere and then RNA was isolated from the pooled contents of the 4 wells of a given condition for a specific patient, and the RNA was stored at −70° C. and subsequently used for quantitative real time PCR analysis of gene expression of 41 immune-related genes.
As noted above, after 2 days of growth of the PBMC in a 37° C. humidified 5% CO2 incubator in a 96-well plate, four wells of a single condition (negative control, positive control, heat-inactivated HSV-1, HSV-1-infected cell extracts, or Candida extract) with cells from a single subject (200 μL in each well) were pooled, and the RNA was immediately isolated with Trizol reagent and chloroform by Qiagen RNeasy MiniElute clean up kit Qiagen cat #74204, according to manufacturer's instructions into a final volume of 13 μL, and then flash frozen on powdered dry ice, and stored at −70° C. in aliquots of 3 μL for RNA quantification and 10 μL for PCR analysis.
RNA was preamplified with the Qiagen RT2 PreAMP cDNA synthesis kit (Ref. 330451) and custom RT2 PreAmp primer mix (Ref. 330141) starting with about 50 ng RNA according to the procedure of RT preamp cDNA synthesis handbook date March 2011, pages 17-20. The amplification reactions (final 120 μL) were frozen at −70° C. and used for qPCR analysis the next day.
qPCR was done with the Qiagen RT PCR profiler gene analysis kit (catalog number 330451) using RT2 Sybr Green Rox qPCR Mastermix (24) (Part 330523) and Custom RT2 PCR array plates (Ref. 330171). For this 675 μL 2×RT2 SYBR green mastermix, 51 μL pre-AMP synthesis reaction, and 623 μL RNase free water were mixed, and then 25 μL of the mixture was added to 48 wells on the left or right half of the custom PCR plate. The PCR instrument was Applied Biosystems 7900HT fast real time PCR. […]

[1] = PBMC + Candida extract, group A day 57 vs day 1 (pre-dose), one topical 2% SADBE dose
[2] = PBMC + HSV-1-infected cell extracts (CE), group A day 57 vs day 1 (pre-dose), one topical 2% SADBE dose
[3] = PBMC + heat-killed HSV-1 virus, group A day 57 vs day 1 (pre-dose), one topical 2% SADBE dose

CCCCOc1c(OCCCC)c(=O)c1=O [SADBE, 3,4-Dibutoxy-3-cyclobutene-1,2-dione]
ratio of absolute expression in A57 vs. A1: FOXP3 [1]: 2.01 | ratio of absolute expression in A57 vs. A1: GATA3 [1]: 0.28 | ratio of absolute expression in A57 vs. A1: ICAM1 [1]: 1.27 | ratio of absolute expression in A57 vs. A1: IFNA1 [1]: 2.13 | ratio of absolute expression in A57 vs. A1: IFNB1 [1]: 0.93 | ratio of absolute expression in A57 vs. A1: IFNG [1]: 8.54 | ratio of absolute expression in A57 vs. A1: IL1B [1]: 1.73 | ratio of absolute expression in A57 vs. A1: IL1R1 [1]: 0.9 | ratio of absolute expression in A57 vs. A1: IL1RN [1]: 1.91 | ratio of absolute expression in A57 vs. A1: IL2 [1]: 6.31 | ratio of absolute expression in A57 vs. A1: IL4 [1]: 1.52 | ratio of absolute expression in A57 vs. A1: IL5 [1]: 1.1 | ratio of absolute expression in A57 vs. A1: IL8 [1]: 1.89 | ratio of absolute expression in A57 vs. A1: IL10 [1]: 1.12 | ratio of absolute expression in A57 vs. A1: IL12A [1]: 1.64 | ratio of absolute expression in A57 vs. A1: IL12B [1]: 3.61 | ratio of absolute expression in A57 vs. A1: IL13 [1]: 4.28 | ratio of absolute expression in A57 vs. A1: IL15 [1]: 2.18 | ratio of absolute expression in A57 vs. A1: IL16 [1]: 0.81 | ratio of absolute expression in A57 vs. A1: JAK2 [1]: 1.68 | ratio of absolute expression in A57 vs. A1: LTA [1]: 1.94 | ratio of absolute expression in A57 vs. A1: LYZ [1]: 0.93 | ratio of absolute expression in A57 vs. A1: MX1 [1]: 1.34 | ratio of absolute expression in A57 vs. A1: NOD1 [1]: 1.18 | ratio of absolute expression in A57 vs. A1: SPP1 [1]: 7.34 | ratio of absolute expression in A57 vs. A1: STAT1 [1]: 3.36 | ratio of absolute expression in A57 vs. A1: STAT4 [1]: 1.76 | ratio of absolute expression in A57 vs. A1: TNF [1]: 1.22 | ratio of absolute expression in A57 vs. A1: TNFSF10 [1]: 1.52 | ratio of absolute expression in A57 vs. A1: TNFSF13B [1]: 1.62 | ratio of absolute expression in A57 vs. A1: CCL2 [2]: 1.21 | ratio of absolute expression in A57 vs. A1: CCL3 [2]: 4.6 | ratio of absolute expression in A57 vs. A1: CCL7 [2]: 0.75 | ratio of absolute expression in A57 vs. A1: CCR5 [2]: 0.93 | ratio of absolute expression in A57 vs. A1: CD80 [2]: 0.93 | ratio of absolute expression in A57 vs. A1: CXCL2 [2]: 2.79 | ratio of absolute expression in A57 vs. A1: CXCL5 [2]: 6.03 | ratio of absolute expression in A57 vs. A1: CXCL9 [2]: 0.91 | ratio of absolute expression in A57 vs. A1: CXCL10 [2]: 0.49 | ratio of absolute expression in A57 vs. A1: CXCL11 [2]: 0.31 | ratio of absolute expression in A57 vs. A1: DDX58 [2]: 0.94 | ratio of absolute expression in A57 vs. A1: FOXP3 [2]: 1.11 | ratio of absolute expression in A57 vs. A1: GATA3 [2]: 2.6 | ratio of absolute expression in A57 vs. A1: ICAM1 [2]: 0.77 | ratio of absolute expression in A57 vs. A1: IFNA1 [2]: 1.29 | ratio of absolute expression in A57 vs. A1: IFNB1 [2]: 0.65 | ratio of absolute expression in A57 vs. A1: IFNG [2]: 5.72 | ratio of absolute expression in A57 vs. A1: IL1B [2]: 21.45 | ratio of absolute expression in A57 vs. A1: IL1R1 [2]: 1.11 | ratio of absolute expression in A57 vs. A1: IL1RN [2]: 0.79 | ratio of absolute expression in A57 vs. A1: IL2 [2]: 2.48 | ratio of absolute expression in A57 vs. A1: IL4 [2]: 0.89 | ratio of absolute expression in A57 vs. A1: IL5 [2]: 0.5 | ratio of absolute expression in A57 vs. A1: IL8 [2]: 3.86 | ratio of absolute expression in A57 vs. A1: IL10 [2]: 3.29 | ratio of absolute expression in A57 vs. A1: IL12A [2]: 0.89 | ratio of absolute expression in A57 vs. A1: IL12B [2]: 0.23 | ratio of absolute expression in A57 vs. A1: IL13 [2]: 2.28 | ratio of absolute expression in A57 vs. A1: IL15 [2]: 0.87 | ratio of absolute expression in A57 vs. A1: IL16 [2]: 1.02 | ratio of absolute expression in A57 vs. A1: JAK2 [2]: 0.82 | ratio of absolute expression in A57 vs. A1: LTA [2]: 0.99 | ratio of absolute expression in A57 vs. A1: LYZ [2]: 0.29 | ratio of absolute expression in A57 vs. A1: MX1 [2]: 0.66 | ratio of absolute expression in A57 vs. A1: NOD1 [2]: 0.89 | ratio of absolute expression in A57 vs. A1: SPP1 [2]: 5.38 | ratio of absolute expression in A57 vs. A1: STAT1 [2]: 0.91 | ratio of absolute expression in A57 vs. A1: STAT4 [2]: 1.01 | ratio of absolute expression in A57 vs. A1: TNF [2]: 1.2 | ratio of absolute expression in A57 vs. A1: TNFSF10 [2]: 0.88 | ratio of absolute expression in A57 vs. A1: TNFSF1313 [2]: 1.07 | ratio of absolute expression in A57 vs. A1: CCL2 [3]: 1.71 | ratio of absolute expression in A57 vs. A1: CCL3 [3]: 3.73 | ratio of absolute expression in A57 vs. A1: CCL7 [3]: 1.81 | ratio of absolute expression in A57 vs. A1: CCR5 [3]: 1.35 | ratio of absolute expression in A57 vs. A1: CD80 [3]: 1.25 | ratio of absolute expression in A57 vs. A1: CXCL2 [3]: 1.58 | ratio of absolute expression in A57 vs. A1: CXCL5 [3]: 2.52 | ratio of absolute expression in A57 vs. A1: CXCL9 [3]: 2.5 | ratio of absolute expression in A57 vs. A1: CXCL10 [3]: 1 | ratio of absolute expression in A57 vs. A1: CXCL11 [3]: 0.4 | ratio of absolute expression in A57 vs. A1: DDX58 [3]: 0.95 | ratio of absolute expression in A57 vs. A1: FOXP3 [3]: 2.46 | ratio of absolute expression in A57 vs. A1: GATA3 [3]: 0.32 | ratio of absolute expression in A57 vs. A1: ICAM1 [3]: 1.07 | ratio of absolute expression in A57 vs. A1: IFNA1 [3]: 1.34 | ratio of absolute expression in A57 vs. A1: IFNB1 [3]: 0.87 | ratio of absolute expression in A57 vs. A1: IFNG [3]: 11.01 | ratio of absolute expression in A57 vs. A1: IL1B [3]: 5.09 | ratio of absolute expression in A57 vs. A1: IL1R1 [3]: 0.97 | ratio of absolute expression in A57 vs. A1: IL1RN [3]: 1.48 | ratio of absolute expression in A57 vs. A1: IL2 [3]: 2.11 | ratio of absolute expression in A57 vs. A1: IL4 [3]: 1.32 | ratio of absolute expression in A57 vs. A1: IL5 [3]: 0.56 | ratio of absolute expression in A57 vs. A1: IL8 [3]: 3.3 | ratio of absolute expression in A57 vs. A1: IL10 [3]: 2.29 | ratio of absolute expression in A57 vs. A1: IL12A [3]: 1.48 | ratio of absolute expression in A57 vs. A1: IL12B [3]: 2.08 | ratio of absolute expression in A57 vs. A1: IL13 [3]: 3.02 | ratio of absolute expression in A57 vs. A1: IL15 [3]: 1.54 | ratio of absolute expression in A57 vs. A1: IL16 [3]: 0.82 | ratio of absolute expression in A57 vs. A1: JAK2 [3]: 1.26 | ratio of absolute expression in A57 vs. A1: LTA [3]: 1.84 | ratio of absolute expression in A57 vs. A1: LYZ [3]: 0.53 | ratio of absolute expression in A57 vs. A1: MX1 [3]: 0.66 | ratio of absolute expression in A57 vs. A1: NOD1 [3]: 1.14 | ratio of absolute expression in A57 vs. A1: SPP1 [3]: 15.29 | ratio of absolute expression in A57 vs. A1: STAT1 [3]: 1.41 | ratio of absolute expression in A57 vs. A1: STAT4 [3]: 1.69 | ratio of absolute expression in A57 vs. A1: TNF [3]: 1.19 | ratio of absolute expression in A57 vs. A1: TNFSF10 [3]: 1.01 | ratio of absolute expression in A57 vs. A1: TNFSF13B [3]: 1.23 | Ratio of absolute IFNG gene expression in group A vs. Groups B + C pooled (Virus, group A day 57 after SADBE): 3.359* | IFNG expression in group A on day 57 than day 1 (all three stimuli, PBMC): at least 8 fold
